This is an account of results in US9326506B2, “Preparation method, agricultural composition and applications of natural brassinolide analogs” (CHENGDU NEWSUN CROPSCIENCE CO., LTD, priority 2012, dated 2016).

This assay has as its system soybean. As to the kind of experiment: Farmland test on soybean (germination, height, fresh weight, dry weight). It is filed as in vivo. As to conditions: relative to the negative control (pure water). The procedure: BR1, BR2, BR3, BR4, BR5 and BR6 were mixed into a mixture of brassinolide analogues (referred to as “BRs”, in which the weight ratio of BR1:BR2:BR3:BR4:BR5:BR6 is 0.4:0.4:0.4:0.4:0.4:98). pure water was used as a negative control, while chemically synthesized homobrassinolide (purchased from Yunda Technology Co., Ltd.) was used as a positive control. Respectively BRs and the positive control were diluted to the concentrations of 1 ppm, 0.5 ppm, 0.1 ppm, 0.05 ppm, 0.01 ppm, 0.005 ppm, 0.001 ppm, 0.0005 ppm and 0.0001 ppm. The subjects for the experimentation are soybean seeds in an experimental farmland. We sowed the soybean seeds on 9th July, surveyed the germination on 22nd July, 23rd July and 24th July, and measured the height on 5th September […].

`CC[C@@H](C(C)C)[C@H](O)[C@@H](O)[C@@H](C)[C@H]1CC[C@H]2[C@@H]3COC(=O)[C@H]4C[C@H](O)[C@H](O)C[C@]4(C)[C@H]3CC[C@]12C` [homobrassinolide]: the “Effects on germination, height, fresh weight and dry weight of soybean” value was “positive and different effects”.
